Reference: ChEMBL document CHEMBL5678818, “Discovery of potent SOS1 inhibitors that block RAS activation via disruption of the RAS-SOS1 interaction” (Proc Natl Acad Sci U S A, 2019)

Key:
[1] = biological target: T1, Serine/threonine-protein kinase Chk1 (Homo sapiens) (UniProt O14757); assay: Inhibition of CHEK1 (unknown origin) assessed as residual activity at 1000 nM by KINOMEscan analysis relative to control
T1 sequence (whole entry): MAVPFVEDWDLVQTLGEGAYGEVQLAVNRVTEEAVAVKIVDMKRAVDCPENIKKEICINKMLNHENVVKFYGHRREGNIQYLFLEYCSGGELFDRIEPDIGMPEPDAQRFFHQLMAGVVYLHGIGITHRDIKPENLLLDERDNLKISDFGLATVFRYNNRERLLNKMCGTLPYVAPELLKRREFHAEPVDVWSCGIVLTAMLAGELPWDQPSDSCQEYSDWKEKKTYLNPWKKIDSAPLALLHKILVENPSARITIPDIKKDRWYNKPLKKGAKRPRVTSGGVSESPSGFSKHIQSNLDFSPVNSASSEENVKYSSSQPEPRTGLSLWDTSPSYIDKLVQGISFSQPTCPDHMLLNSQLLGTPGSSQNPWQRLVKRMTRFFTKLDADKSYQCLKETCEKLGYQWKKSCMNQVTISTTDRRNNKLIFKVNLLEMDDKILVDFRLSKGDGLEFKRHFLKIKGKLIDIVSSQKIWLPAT

[2] = biological target: T2, Serine/threonine-protein kinase Nek2 (Homo sapiens) (UniProt P51955); assay: Inhibition of NEK2 (unknown origin) assessed as residual activity at 1000 nM by KINOMEscan analysis relative to control
T2 sequence (whole entry): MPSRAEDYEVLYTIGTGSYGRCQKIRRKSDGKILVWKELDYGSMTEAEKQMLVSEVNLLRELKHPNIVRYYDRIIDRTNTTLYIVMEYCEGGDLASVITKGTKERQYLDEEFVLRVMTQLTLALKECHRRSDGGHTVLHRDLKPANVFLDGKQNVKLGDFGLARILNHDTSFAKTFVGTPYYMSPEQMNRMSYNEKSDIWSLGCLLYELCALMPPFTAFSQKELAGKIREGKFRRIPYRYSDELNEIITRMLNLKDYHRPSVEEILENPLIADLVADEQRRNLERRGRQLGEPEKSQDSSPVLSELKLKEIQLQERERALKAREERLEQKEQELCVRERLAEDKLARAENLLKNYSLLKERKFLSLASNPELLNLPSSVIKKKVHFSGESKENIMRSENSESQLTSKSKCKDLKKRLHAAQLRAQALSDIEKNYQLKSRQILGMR

[3] = biological target: Serine/threonine-protein kinase 32A (Homo sapiens) (UniProt Q8WU08); assay: Inhibition of YANK1 (unknown origin) assessed as residual activity at 1000 nM by KINOMEscan analysis relative to control
Chain of Serine/threonine-protein kinase 32A (Homo sapiens) (Q8WU08 whole entry): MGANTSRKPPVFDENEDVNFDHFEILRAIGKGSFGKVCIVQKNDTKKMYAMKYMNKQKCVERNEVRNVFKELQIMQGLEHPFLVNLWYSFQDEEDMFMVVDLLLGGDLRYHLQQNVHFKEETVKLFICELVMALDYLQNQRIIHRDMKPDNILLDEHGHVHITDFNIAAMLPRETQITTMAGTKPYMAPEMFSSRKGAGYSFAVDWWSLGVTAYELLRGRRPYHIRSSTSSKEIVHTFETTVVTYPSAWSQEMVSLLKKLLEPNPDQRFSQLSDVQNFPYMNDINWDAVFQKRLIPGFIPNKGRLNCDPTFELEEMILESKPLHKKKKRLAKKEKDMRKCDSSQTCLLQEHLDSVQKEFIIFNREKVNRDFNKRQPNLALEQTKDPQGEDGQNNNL

[4] = biological target: T3, Serine/threonine-protein kinase BRSK2 (Homo sapiens) (UniProt Q8IWQ3); assay: Inhibition of BRSK2 (unknown origin) assessed as residual activity at 1000 nM by KINOMEscan analysis relative to control
T3 sequence (whole entry): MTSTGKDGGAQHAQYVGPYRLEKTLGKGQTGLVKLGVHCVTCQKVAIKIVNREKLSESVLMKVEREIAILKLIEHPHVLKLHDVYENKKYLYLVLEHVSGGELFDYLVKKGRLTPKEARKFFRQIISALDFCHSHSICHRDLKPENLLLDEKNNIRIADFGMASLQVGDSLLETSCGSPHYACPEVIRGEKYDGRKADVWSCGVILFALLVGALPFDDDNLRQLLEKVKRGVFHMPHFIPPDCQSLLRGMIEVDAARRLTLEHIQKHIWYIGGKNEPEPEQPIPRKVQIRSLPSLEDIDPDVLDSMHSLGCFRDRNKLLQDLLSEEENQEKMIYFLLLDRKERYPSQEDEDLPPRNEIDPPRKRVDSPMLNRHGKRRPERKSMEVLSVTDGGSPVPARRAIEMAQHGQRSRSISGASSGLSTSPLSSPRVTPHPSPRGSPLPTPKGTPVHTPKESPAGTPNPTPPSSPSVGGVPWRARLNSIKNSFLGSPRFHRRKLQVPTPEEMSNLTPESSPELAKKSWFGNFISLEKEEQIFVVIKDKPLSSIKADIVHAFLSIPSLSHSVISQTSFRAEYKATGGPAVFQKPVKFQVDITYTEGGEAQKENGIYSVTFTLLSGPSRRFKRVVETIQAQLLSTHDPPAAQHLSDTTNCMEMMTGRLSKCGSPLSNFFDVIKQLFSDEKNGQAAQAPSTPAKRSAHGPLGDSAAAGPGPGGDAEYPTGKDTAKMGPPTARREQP

[5] = biological target: Mitogen-activated protein kinase kinase kinase 9 (Homo sapiens) (UniProt P80192); assay: Inhibition of MLK1 (unknown origin) assessed as residual activity at 1000 nM by KINOMEscan analysis relative to control
Chain of Mitogen-activated protein kinase kinase kinase 9 (Homo sapiens) (P80192 whole entry, looked up): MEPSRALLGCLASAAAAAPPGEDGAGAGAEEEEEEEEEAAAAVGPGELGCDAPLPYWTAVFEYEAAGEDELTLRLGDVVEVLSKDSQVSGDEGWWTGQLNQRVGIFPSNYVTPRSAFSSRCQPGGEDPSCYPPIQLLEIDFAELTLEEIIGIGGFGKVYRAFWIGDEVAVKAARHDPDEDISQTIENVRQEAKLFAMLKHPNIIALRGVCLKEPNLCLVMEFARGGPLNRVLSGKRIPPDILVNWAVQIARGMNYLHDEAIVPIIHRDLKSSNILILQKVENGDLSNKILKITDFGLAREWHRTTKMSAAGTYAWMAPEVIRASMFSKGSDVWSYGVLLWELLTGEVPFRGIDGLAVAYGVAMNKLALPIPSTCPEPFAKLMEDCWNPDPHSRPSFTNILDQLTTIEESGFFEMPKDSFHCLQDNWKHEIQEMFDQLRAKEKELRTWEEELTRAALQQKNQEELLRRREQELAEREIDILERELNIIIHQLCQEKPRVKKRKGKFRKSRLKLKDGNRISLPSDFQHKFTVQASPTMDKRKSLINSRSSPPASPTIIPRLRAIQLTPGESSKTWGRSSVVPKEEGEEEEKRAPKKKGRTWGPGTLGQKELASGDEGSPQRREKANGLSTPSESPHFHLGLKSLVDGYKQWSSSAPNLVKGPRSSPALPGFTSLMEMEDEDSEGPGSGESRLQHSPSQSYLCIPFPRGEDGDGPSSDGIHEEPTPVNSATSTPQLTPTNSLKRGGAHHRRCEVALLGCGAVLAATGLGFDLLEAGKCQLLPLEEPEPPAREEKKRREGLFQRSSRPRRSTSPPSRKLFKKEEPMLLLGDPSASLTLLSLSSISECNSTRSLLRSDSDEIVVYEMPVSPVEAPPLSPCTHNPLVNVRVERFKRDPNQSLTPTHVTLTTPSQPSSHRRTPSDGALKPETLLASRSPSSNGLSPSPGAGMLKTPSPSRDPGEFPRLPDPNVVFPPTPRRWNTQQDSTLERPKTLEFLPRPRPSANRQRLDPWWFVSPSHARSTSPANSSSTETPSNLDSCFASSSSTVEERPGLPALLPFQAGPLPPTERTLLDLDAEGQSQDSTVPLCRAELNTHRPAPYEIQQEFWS

[6] = biological target: Serine/threonine-protein kinase Nek7 (Homo sapiens) (UniProt Q8TDX7); assay: Inhibition of NEK7 (unknown origin) assessed as residual activity at 1000 nM by KINOMEscan analysis relative to control
Chain of Serine/threonine-protein kinase Nek7 (Homo sapiens) (Q8TDX7 whole entry, looked up): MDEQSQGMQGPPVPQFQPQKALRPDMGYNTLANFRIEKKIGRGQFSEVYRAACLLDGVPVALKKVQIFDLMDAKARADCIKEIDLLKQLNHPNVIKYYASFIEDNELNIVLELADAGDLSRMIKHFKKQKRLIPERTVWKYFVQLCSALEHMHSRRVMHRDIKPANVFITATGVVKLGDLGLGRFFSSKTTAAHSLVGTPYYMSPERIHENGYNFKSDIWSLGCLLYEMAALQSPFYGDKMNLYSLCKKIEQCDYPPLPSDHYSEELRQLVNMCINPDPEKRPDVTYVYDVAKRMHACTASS

[7] = biological target: Serine/threonine-protein kinase 24 (Homo sapiens) (UniProt Q9Y6E0); assay: Inhibition of MST3 (unknown origin) assessed as residual activity at 1000 nM by KINOMEscan analysis relative to control
Chain of Serine/threonine-protein kinase 24 (Homo sapiens) (Q9Y6E0 whole entry, looked up): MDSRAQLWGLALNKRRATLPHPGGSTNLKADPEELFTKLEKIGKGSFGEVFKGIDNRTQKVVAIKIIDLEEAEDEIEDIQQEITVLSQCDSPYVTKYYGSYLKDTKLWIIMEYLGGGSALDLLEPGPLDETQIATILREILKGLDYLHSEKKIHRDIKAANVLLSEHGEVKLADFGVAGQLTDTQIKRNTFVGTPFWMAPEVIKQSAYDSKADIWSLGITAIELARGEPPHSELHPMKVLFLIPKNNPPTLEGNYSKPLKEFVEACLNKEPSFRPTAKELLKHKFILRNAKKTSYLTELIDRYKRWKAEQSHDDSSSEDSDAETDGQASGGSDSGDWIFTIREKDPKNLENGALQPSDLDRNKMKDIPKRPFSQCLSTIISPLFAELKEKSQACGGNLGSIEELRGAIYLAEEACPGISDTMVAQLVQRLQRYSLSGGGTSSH

[8] = biological target: T4, Cytoplasmic tyrosine-protein kinase BMX (Homo sapiens) (UniProt P51813); assay: Inhibition of BMX (unknown origin) assessed as residual activity at 1000 nM by KINOMEscan analysis relative to control
T4 sequence (whole entry): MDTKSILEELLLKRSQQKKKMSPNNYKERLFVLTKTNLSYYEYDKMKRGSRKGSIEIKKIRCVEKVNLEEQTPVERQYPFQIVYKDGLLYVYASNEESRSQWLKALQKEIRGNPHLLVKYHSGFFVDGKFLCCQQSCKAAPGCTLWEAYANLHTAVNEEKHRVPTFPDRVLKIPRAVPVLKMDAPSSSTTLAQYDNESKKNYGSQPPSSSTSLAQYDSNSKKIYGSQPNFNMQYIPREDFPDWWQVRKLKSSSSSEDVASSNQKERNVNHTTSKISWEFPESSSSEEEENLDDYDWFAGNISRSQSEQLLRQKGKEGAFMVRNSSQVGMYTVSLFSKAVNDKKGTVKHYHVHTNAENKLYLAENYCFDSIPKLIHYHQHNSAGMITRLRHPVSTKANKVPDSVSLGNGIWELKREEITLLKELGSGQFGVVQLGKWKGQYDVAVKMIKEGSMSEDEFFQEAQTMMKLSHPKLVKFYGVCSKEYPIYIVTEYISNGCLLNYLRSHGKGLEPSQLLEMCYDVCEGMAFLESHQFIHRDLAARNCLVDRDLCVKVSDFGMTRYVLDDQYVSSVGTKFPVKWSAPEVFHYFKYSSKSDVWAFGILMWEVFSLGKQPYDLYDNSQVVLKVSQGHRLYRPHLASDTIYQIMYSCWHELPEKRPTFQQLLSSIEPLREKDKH

[9] = biological target: Fibroblast growth factor receptor 4 (Homo sapiens) (UniProt P22455); assay: Inhibition of FGFR4 (unknown origin) assessed as residual activity at 1000 nM by KINOMEscan analysis relative to control
Chain of Fibroblast growth factor receptor 4 (Homo sapiens) (P22455 22-802 limits assumed): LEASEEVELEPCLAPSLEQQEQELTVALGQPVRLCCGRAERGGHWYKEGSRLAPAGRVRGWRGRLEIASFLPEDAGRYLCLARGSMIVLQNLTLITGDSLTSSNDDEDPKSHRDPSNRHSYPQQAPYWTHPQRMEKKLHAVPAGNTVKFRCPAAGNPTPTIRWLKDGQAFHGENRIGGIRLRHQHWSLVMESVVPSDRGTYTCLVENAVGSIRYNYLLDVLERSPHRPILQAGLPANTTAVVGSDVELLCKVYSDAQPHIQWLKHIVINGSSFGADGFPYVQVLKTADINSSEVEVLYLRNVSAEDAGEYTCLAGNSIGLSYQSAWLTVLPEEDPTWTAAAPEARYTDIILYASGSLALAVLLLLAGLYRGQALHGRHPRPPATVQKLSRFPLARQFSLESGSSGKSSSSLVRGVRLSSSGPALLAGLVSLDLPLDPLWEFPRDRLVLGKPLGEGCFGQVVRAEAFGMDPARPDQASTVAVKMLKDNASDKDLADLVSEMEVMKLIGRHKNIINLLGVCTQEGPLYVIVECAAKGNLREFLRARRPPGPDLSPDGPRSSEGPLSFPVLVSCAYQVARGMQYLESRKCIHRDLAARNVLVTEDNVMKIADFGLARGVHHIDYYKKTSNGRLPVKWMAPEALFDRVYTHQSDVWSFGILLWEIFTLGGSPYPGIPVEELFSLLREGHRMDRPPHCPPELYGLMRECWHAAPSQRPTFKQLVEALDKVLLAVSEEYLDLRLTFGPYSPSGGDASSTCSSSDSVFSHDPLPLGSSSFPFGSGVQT

Compound	Activity [1] [%]	Activity [2] [%]	Activity [3] [%]	Activity [4] [%]	Activity [5] [%]	Activity [6] [%]	Activity [7] [%]	Activity [8] [%]	Activity [9] [%]
COc1cc2ncnc(N[C@H](C)c3cccc4ccccc34)c2cc1OC	100	98	86	78	100	100	100	97	98
COc1cc2nc(C)nc(N[C@H](C)c3cccc(-c4cn[nH]c4)c3)c2cc1OC	98	89	97	85	84	89	61	100	97
